Test results as given in publication PMC7822874, “Chemoprotective antimalarials identified through quantitative high-throughput screening of Plasmodium blood and liver stage parasites” (Scientific Reports, 2021).
Read-outs that look alike come from different tables or passages of the source.

Key:
HepG2-A16-CD81EGFP cells = settings: for HepG2 1uM growth rep1 / HepG2 1uM growth rep2: HepG2, 1 µM compound treatment (10 mM stocks); for HepG2 1uM growth rep1 / HepG2 3uM growth rep1: replicate 1, normalized; for HepG2 1uM growth rep1 / HepG2 1uM growth rep2 / HepG2 3uM growth rep1 / HepG2 3uM growth rep2: average of 2 wells; for HepG2 1uM growth rep2 / HepG2 3uM growth rep2: replicate 2, normalized; for HepG2 3uM growth rep1 / HepG2 3uM growth rep2: HepG2, 3 µM compound treatment (10 mM stocks); for Average HepG2 3 µM response( %): averaged response (percent)
[1] = system: P. berghei-ANKA-GFP-LucCON liver stage parasites in HepG2-A16-CD81EGFP cells; assay: P. berghei liver stage Pb-Luc assay, Method 1 (UCSD, 1536-well); assay type: cell-based, Plasmodium berghei; settings: for PbLuc 1uM growth rep1 / PbLuc 1uM growth rep2: 1 µM compound treatment (10 mM stocks); for PbLuc 1uM growth rep1 / PbLuc 3uM growth rep1: replicate 1, normalized; for PbLuc 1uM growth rep1 / PbLuc 1uM growth rep2 / PbLuc 3uM growth rep1 / PbLuc 3uM growth rep2 / activity at 1 µM / activity at 3 µM: average of 2 wells on a 1536 well plate; for PbLuc 1uM growth rep2 / PbLuc 3uM growth rep2: replicate 2, normalized; for PbLuc 3uM growth rep1 / PbLuc 3uM growth rep2: 3 µM compound treatment (10 mM stocks); for AC50 / Max Resp (signal direction of the dose response) / Log AC50 (M): Method 1; for activity at 1 µM / activity at 3 µM: 48 h; for activity at 1 µM: 1 uM (compounds provided at 10 mM); for activity at 3 µM: 3 uM (compounds provided at 10 mM); for Max Resp (signal direction of the dose response): Decrease = decreasing P. berghei viability with dose, Increase = increasing signal, Inactive = no dose response
in vitro = settings: human, HepG2-A16-CD81EGFP cells, uninfected
[2] = system: Plasmodium falciparum Dd2 asexual blood stage parasites; assay: microbe, parasite or virus in culture; set-up: species or system Plasmodium falciparum Dd2 in human erythrocytes; single determination (one 11-point concentration-response curve); settings: Plasmodium falciparum, DD2, Erythrocyte, 72 h; read-out: AC50
[3] = Plasmodium berghei, Hill fit, 50% of maximum activity response, read-out: AC50
[4] = Plasmodium berghei, log10 of molar AC50 from Hill fit, read-out: Log AC50 (converted)
[5] = Plasmodium berghei, column 11, read-out: Pb-Luc (P. berghei liver stage), % of control, lower concentration, first repeat
[6] = Plasmodium berghei, column 12, read-out: Pb-Luc (P. berghei liver stage), % of control, lower concentration, second repeat
[7] = Plasmodium berghei, column 8, read-out: Pb-Luc (P. berghei liver stage), % of control, higher concentration, first repeat
[8] = Plasmodium berghei, column 9, read-out: Pb-Luc (P. berghei liver stage), % of control, higher concentration, second repeat
[9] = Hill fit, 50% of maximum activity response, read-out: AC50
[10] = log10 of molar AC50 from Hill fit

Row | Structure (SMILES) | AC50 [2] [µM] | viability at 48 h, 1 µM (in vitro) [%] | viability at 48 h, 3 µM (in vitro) [%] | activity at 1 µM [1, 5] [%] | activity at 1 µM [1, 6] [%] | activity at 3 µM [1, 7] [%] | activity at 3 µM [1, 8] [%] | other results
1 | C=C(C)CSc1nc2sc3c(c2c(=O)n1-c1ccc(C)cc1)CCN(C)C3 [MLS001173676-01] |  |  |  |  |  |  |  | HepG2 1uM growth rep1 (HepG2-A16-CD81EGFP cells): 102%; HepG2 1uM growth rep2 (HepG2-A16-CD81EGFP cells): 92%; HepG2 3uM growth rep1 (HepG2-A16-CD81EGFP cells): 84%; HepG2 3uM growth rep2 (HepG2-A16-CD81EGFP cells): 90%; PbLuc 1uM growth rep1 ([1]; P. berghei liver stage): 91%; PbLuc 1uM growth rep2 ([1]; P. berghei liver stage): 84%; PbLuc 3uM growth rep1 ([1]; P. berghei liver stage): 44%; PbLuc 3uM growth rep2 ([1]; P. berghei liver stage): 74%
2 | COc1cc(OC)c(OC)cc1CN1CCc2nc(N(C)C)[nH]c(=O)c2CC1 [NCGC00440589] |  |  |  |  |  |  |  | Average HepG2 3 µM response( %) (HepG2-A16-CD81EGFP cells; HepG2, 3 µM dose): 100%; Average HepG2 3 µM response( %) (HepG2-A16-CD81EGFP cells; HepG2, the header list (r10) describes it as the 1 µM dose): 102%; Average P. berghei 3 µM response( %) ([1]; P. berghei liver stage, 3 µM dose, averaged response (percent)): 112%; Average P. berghei 1 µM response (%) ([1]; P. berghei liver stage, the header list (r8) defines it as the 1 µM dose, averaged response (percent)): 99%
3 | Cc1ccc(Nc2cc(C)c3ccc(O)cc3n2)cc1C.Cl [MLS000674791-01] |  |  |  |  |  |  |  | HepG2 1uM growth rep1 (HepG2-A16-CD81EGFP cells): 98%; HepG2 1uM growth rep2 (HepG2-A16-CD81EGFP cells): 92%; HepG2 3uM growth rep1 (HepG2-A16-CD81EGFP cells): 89%; HepG2 3uM growth rep2 (HepG2-A16-CD81EGFP cells): 95%; PbLuc 1uM growth rep1 ([1]; P. berghei liver stage): 115%; PbLuc 1uM growth rep2 ([1]; P. berghei liver stage): 107%; PbLuc 3uM growth rep1 ([1]; P. berghei liver stage): 69%; PbLuc 3uM growth rep2 ([1]; P. berghei liver stage): 101%
4 | CC1CCCCN1S(=O)(=O)c1ccc(C(=O)Nc2ccccc2-c2nc3ccccc3[nH]2)cc1 (stereo not drawn) [MLS000697052-01] | 7.5 |  |  |  |  |  |  | viability at 66 h (in vitro): 104%; AC50 [1, 3]: 0.355 µM; AC50 [1, 4]: 0.355 µM
5 | COCC(C)n1c(C)cc(C(=O)CSc2nnc(Nc3ccccc3F)s2)c1C (stereo not drawn) [MLS000566129-01] | 2.99 | 95 | 101 | 126 | 124 | 118 | 120 | 
6 | COc1cc(Cl)c(C)cc1NC(C)C(=O)Nc1cc(C(F)(F)F)ccc1N1CCOCC1 (stereo not drawn) [MLS000375301-01] | 0.422 | 109 | 94 | 124 | 129 | 103 | 103 | 
7 | COc1ccc(NC(=O)CN(C)C(=O)c2oc3c(ccc4ccccc43)c2C)cc1 [MLS002182882-01] | 0.531 | 110 | 104 | 160 | 170 | 88 | 114 | 
8 | O=C(CN1CCN(C(=O)c2ccco2)CC1)Nc1cc(Cl)ccc1Cl [MLS000122513-01] | 5.96 |  |  |  |  |  |  | viability at 66 h (in vitro): 97.6%; Max Resp (signal direction of the dose response) [1]: Inactive
9 | Cc1ccc(/C=N/NC(=O)c2cc3ccccc3cc2O)o1 [MLS001219838-01] | 5.31 | 97.9 |  |  |  |  |  | viability at 48 h (in vitro): 97.9%; Max Resp (signal direction of the dose response) [1]: Decrease; AC50 [1, 3]: 1.41 µM; AC50 [1, 4]: 1.41 µM
10 | CCNc1nc(OC)nc(Oc2ccc(=O)n(-c3ccccc3)n2)n1 [MLS000034902-01] | 5.96 | 112 | 101 | 118 | 109 | 117 | 126 | 
11 | Cc1ccc(Oc2ccc(NC(=O)c3ccco3)cc2)cc1 [MLS000111237-01] | 10.6 |  |  |  |  |  |  | viability at 66 h (in vitro): 95.1%; Max Resp (signal direction of the dose response) [1]: Decrease; AC50 [1, 9]: 0.158 µM; Log AC50 (M) [1, 10]: -6.800 M; AC50 [1, 3]: 0.1 µM; AC50 [1, 4]: 0.1 µM
12 | COc1cccc(NC(=O)CN(C)C(=O)c2ccc(-c3ccc(Cl)cc3)o2)c1 [MLS001142098-01] | 4.22 | 100 | 100 | 146 | 155 | 150 | 187 | 
13 | CCOC(=O)c1ccc(N=C(S)N2CCN(CCNC3=CC(=O)CC(C)(C)C3)CC2)cc1 [MLS000710946-01] | 5.96 | 96 | 101 | 118 | 96 | 134 | 116 | 
14 | COc1cc(O)c(C(CCN2CCN(c3ccccc3)CC2)c2cc(OC)c(OC)c(OC)c2)c(OC)c1 (stereo not drawn) [MLS000879517-01] | 1.33 | 96 | 102 | 87 | 82 | 84 | 91 | 
15 | CCn1cc(C(=O)N[C@@H](CCSC)C(=O)NC(C)(C)CO)c(=O)c2cc3c(cc21)OCO3 [MLS001201727-01] | 2.99 | 103 |  |  |  |  |  | viability at 48 h (in vitro): 103%; Max Resp (signal direction of the dose response) [1]: Inactive
16 | CN(CC(=O)Nc1cccc(F)c1)C(=O)c1ccc(-c2cccc(C(F)(F)F)c2)o1 [MLS001139679-01] | 0.668 | 103 | 99 | 156 | 127 | 81 | 96 | 
17 | O=C(Nc1cccnc1)c1cc(-c2cccnc2)nc2ccc(Br)cc12 [MLS000582206-01] | 2.66 | 109 | 104 | 112 | 106 | 80 | 95 | 
18 | C=C(C)COc1ccc(-c2ncnc(C(F)(F)F)c2-c2ccc(OC)cc2)c(O)c1 [MLS001216205-01] | 2.99 | 89 | 104 | 120 | 94 | 111 | 99 | 
19 | NC1=NC[C@@H](Cc2ccc(O)cc2)N1CCCCC1CCCCC1 [MLS000888822-01] | 4.73 | 116 | 94 | 90 | 82 | 35 | 46 | 
20 | OCCNc1nc(Nc2ccc(Br)cc2)nc2ccccc12 [MLS000625070-01] | 2.66 |  |  |  |  |  |  | viability at 66 h (in vitro): 97%; Max Resp (signal direction of the dose response) [1]: Decrease; AC50 [1, 9]: 2.24 µM; Log AC50 (M) [1, 10]: -5.650 M; AC50 [1, 3]: 1.41 µM; AC50 [1, 4]: 1.41 µM
21 | CCN1CCN(Cc2ccc(NC(=O)c3cc(NC(=O)c4cnn(-c5ccccc5)c4N)cc(OC)c3)cc2C(F)(F)F)CC1 [MLS000911569-01] | 2.11 | 98 | 106 | 116 | 92 | 116 | 103 | 
22 | CCCc1cc(=O)oc2cc(C)cc(OCC(=O)Nc3ccccn3)c12 [MLS001160382-01] | 2.11 | 97 | 111 | 212 | 140 | 42 | 160 | 
23 | CCOC(=O)CCCCC(=O)c1[nH]c(=O)[nH]c1Cn1ccnc1 [MLS000092014-01] | 2.66 | 98 | 107 | 140 | 105 | 84 | 105 | 
24 | CC1CCCN(Cc2c(O)ccc3c(=O)c(-c4ccc(Cl)cc4)coc23)C1 (stereo not drawn) [MLS001196099-01] | 1.88 | 113 | 99 | 102 | 123 | 105 | 96 | 
25 | CCOc1ccc(NC(=O)CN2C(=O)NC(C)(c3ccc(OC(F)F)cc3)C2=O)cc1 (stereo not drawn) [MLS001193353-01] | 9.44 | 109 | 103 | 120 | 108 | 48 | 87 | 
26 | Cn1c(S)nc2sc3c(c2c1=O)CCC(C(C)(C)C)C3 (stereo not drawn) [MLS001198408-01] | 5.31 | 97 | 107 | 80 | 94 | 69 | 61 | 
27 | Cc1ccc(C)c(NC(=O)CN(C)C(=O)c2ccc(-c3cccc(C(F)(F)F)c3)o2)c1 [MLS001161354-01] | 2.11 | 98 | 102 | 171 | 168 | 154 | 126 | 
